US20230089073A1 (Carmot Therapeutics, Inc., priority 2021, published 2023)
pEC50: −log10 of the molar value.

Target: T1, human GLP-1 receptor (Homo sapiens, UniProt P43220)
T1 construct: expressed in transfected cells
Test: GLP-1R cAMP Assay
Format: cell-based
Settings: cAMP accumulation in CHO cells stably overexpressing the human GLP-1 receptor; 30 min treatment; HitHunter cAMP kit; read-out: EC50
Summary of the method: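 Luminescent enzyme-complementation detection of cAMP, read after cell lysis and overnight incubation, with dose-response curve fitting. Stimulation lasted 30 min, using 20-point triplicate dosing on CHO cells (10,000 per well) stably overexpressing human GLP-1R.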

T1 sequence (P43220 24-463): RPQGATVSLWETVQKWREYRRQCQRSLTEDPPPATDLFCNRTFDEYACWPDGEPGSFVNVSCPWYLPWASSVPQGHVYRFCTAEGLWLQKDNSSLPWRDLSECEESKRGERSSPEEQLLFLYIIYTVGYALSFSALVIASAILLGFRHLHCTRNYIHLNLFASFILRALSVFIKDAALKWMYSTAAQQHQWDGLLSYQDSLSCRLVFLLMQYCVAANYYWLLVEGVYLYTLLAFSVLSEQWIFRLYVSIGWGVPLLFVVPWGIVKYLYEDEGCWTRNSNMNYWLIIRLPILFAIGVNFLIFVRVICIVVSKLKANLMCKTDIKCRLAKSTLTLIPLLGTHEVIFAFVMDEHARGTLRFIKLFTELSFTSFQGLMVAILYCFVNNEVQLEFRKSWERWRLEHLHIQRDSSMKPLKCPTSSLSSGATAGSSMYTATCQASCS

Question: How did the pEC50 turn out when `CCn1cncc1Cn1c(CN2CCC(Cc3cnc(COc4ccc(Cl)cc4C)o3)CC2)nc2ccc(C(=O)O)cc21` [Compound 141, 2-{[4-({2-[(4-chloro-2-methylphenoxy)methyl]-1,3-oxazol-5-yl}methyl)piperidin-1-yl]methyl}-1-[(1-ethyl-1H-imidazol-5-yl)methyl]-1H-1,3-benzodiazole-6-carboxylic acid] was run?
Answer: The pEC50 was greater than 7.30.

Question: `N#Cc1cc(Cl)ccc1OCc1cccc(CC2CCN(Cc3nc4ccc(C(=O)O)cc4n3C[C@@H]3CCO3)CC2)c1` [Compound 166, 2-{[4-({3-[(4-chloro-2-cyanophenoxy)methyl]phenyl}methyl)piperidin-1-yl]methyl}-1-{[(2S)-oxetan-2-yl]methyl}-1H-1,3-benzodiazole-6-carboxylic acid] was tested. Which pEC50 did it give?
Answer: The pEC50 was greater than 7.30.

Question: `N#Cc1cc(C2CC2)ccc1OCc1nccc(OC2CCN(Cc3nc4c(F)cc(C(=O)O)cc4n3C[C@@H]3CCO3)CC2)n1` [Compound 508, (S)-2-((4-((2-((2-cyano-4-cyclopropylphenoxy)methyl)pyrimidin-4-yl)oxy)piperidin-1-yl)methyl)-4-fluoro-1-(oxetan-2-ylmethyl)-1H-benzo[d]imidazole-6-carboxylic acid] was tested. Which pEC50 did it give?
Answer: The pEC50 was greater than 7.30.

Question: With `N#Cc1cc(F)c(OCc2nccc(OC3CCN(Cc4nc5c(F)cc(C(=O)O)cc5n4C[C@@H]4CCO4)CC3)n2)cc1F` [Compound 502, 2-{[4-({2-[(4-cyano-2,5-difluorophenoxy)methyl]pyrimidin-4-yl}oxy)piperidin-1-yl]methyl}-4-fluoro-1-{[(2S)-oxetan-2-yl]methyl}-1H-1,3-benzodiazole-6-carboxylic acid] as the molecule, how does the pEC50 read?
Answer: The pEC50 was greater than 7.30.

Question: `O=C(O)c1ccc2nc(CN3CCC(Oc4ccnc(COc5ccc(Cl)cc5F)c4)CC3)n(CC3(CF)CC3)c2c1` [Compound 321] was tested. Which pEC50 did it give?
Answer: Its pEC50 is greater than 7.30.

Question: With `C[C@H]1C[C@@H](Oc2ccnc(COc3ccc(F)cc3F)n2)CCN1Cc1nc2ncc(C(=O)O)cc2n1C[C@@H]1CCO1` [Compound 512, 2-{[(2S,4S)-4-({2-[(2,4-difluorophenoxy)methyl]pyrimidin-4-yl}oxy)-2-methylpiperidin-1-yl]methyl}-1-{[(2S)-oxetan-2-yl]methyl}-1H-imidazo[4,5-b]pyridine-6-carboxylic acid] as the molecule, how does the pEC50 read?
Answer: Its pEC50 is less than 6.30.

Question: How did the pEC50 turn out when `CCn1cnnc1Cn1c(CN2CCC(Oc3ccnc(COc4ccc(Cl)cc4F)c3)CC2)nc2ccc(C(=O)O)cc21` [Compound 316] was run?
Answer: Its pEC50 is greater than 7.30.

Question: `O=C(O)c1ccc2nc(CN3CCC(Oc4cccc(COc5ccc(Cl)cc5Cl)c4)CC3)n(C[C@@H]3CCO3)c2c1F` [Compound 224, 2-[(4-{3-[(2,4-dichlorophenoxy)methyl]phenoxy}piperidin-1-yl)methyl]-7-fluoro-1-{[(2S)-oxetan-2-yl]methyl}-1H-1,3-benzodiazole-6-carboxylic acid] was tested. Which pEC50 did it give?
Answer: Its pEC50 is greater than 7.30.

Question: `N#Cc1ccc(Oc2cccc(C(=O)N3CCN(Cc4nc5ccc(C(=O)O)cc5n4C[C@@H]4CCO4)CC3)c2)c(F)c1` [Example 10, (S)-2-((4-(3-(4-Cyano-2-fluorophenoxy)benzoyl)piperazin-1-yl)methyl)-1-(oxetan-2-ylmethyl)-1H-benzo[d]imidazole-6-carboxylic acid] was tested. Which pEC50 did it give?
Answer: Its pEC50 is less than 6.30.

Question: With `CCn1cncc1Cn1c(CN2CCC(Cc3cncc(COc4ccc(Cl)cc4Cl)c3)CC2)nc2ccc(C(=O)O)cc21` [Compound 139, 2-{[4-({5-[(2,4-dichlorophenoxy)methyl]pyridin-3-yl}methyl)piperidin-1-yl]methyl}-1-[(1-ethyl-1H-imidazol-5-yl)methyl]-1H-1,3-benzodiazole-6-carboxylic acid] as the molecule, how does the pEC50 read?
Answer: Its pEC50 is greater than 7.30.

Question: How did the pEC50 turn out when `N#Cc1ccc(OCc2cccc(C(=O)N3CCN(Cc4nc5ccc(C(=O)O)cc5n4C[C@@H]4CCO4)CC3)c2)c(F)c1` [Compound 68, 2-[(4-{3-[(4-cyano-2-fluorophenoxy)methyl]benzoyl}piperazin-1-yl)methyl]-1-{[(2S)-oxetan-2-yl]methyl}-1H-1,3-benzodiazole-6-carboxylic acid] was run?
Answer: The pEC50 was less than 6.30.

Question: With `O=C(O)c1ccc2nc(CN3CCN(C(=O)c4cccc(Oc5cc(Cl)ccc5Cl)c4)CC3)n(C[C@@H]3CCO3)c2c1` [Compound 11, 2-({4-[3-(2,5-dichlorophenoxy)benzoyl]piperazin-1-yl}methyl)-1-{[(2S)-oxetan-2-yl]methyl}-1H-1,3-benzodiazole-6-carboxylic acid] as the molecule, how does the pEC50 read?
Answer: Its pEC50 is less than 6.30.

Question: `O=C(O)c1cc(F)c2nc(CN3CCC(Oc4ccnc(COc5ccc(F)cc5Cl)n4)CC3)n(C[C@@H]3CCO3)c2c1` [Compound 329] was tested. Which pEC50 did it give?
Answer: The pEC50 was greater than 7.30.

Question: With `CCn1cncc1Cn1c(CN2CCC(Cc3cccc(COc4ccc(C)cc4Cl)n3)CC2)nc2ccc(C(=O)O)cc21` [Compound 120, 2-{[4-({6-[(2-chloro-4-methylphenoxy)methyl]pyridin-2-yl}methyl)piperidin-1-yl]methyl}-1-[(1-ethyl-1H-imidazol-5-yl)methyl]-1H-1,3-benzodiazole-6-carboxylic acid] as the molecule, how does the pEC50 read?
Answer: The pEC50 was greater than 7.30.

Question: How did the pEC50 turn out when `O=C(O)c1ccc2nc(CN3CCC(Cc4cc(F)cc(COc5ccc(Cl)cc5Cl)c4)CC3)n(C[C@@H]3CCO3)c2c1` [Compound 126, 2-{[4-({3-[(2,4-dichlorophenoxy)methyl]-5-fluorophenyl}methyl)piperidin-1-yl]methyl}-1-{[(2S)-oxetan-2-yl]methyl}-1H-1,3-benzodiazole-6-carboxylic acid] was run?
Answer: Its pEC50 is 6.30 to 7.30.

Question: How did the pEC50 turn out when `N#Cc1ccc(COc2cccc(C3CCN(C(=O)c4ccc(-c5nnn[nH]5)nc4)CC3)n2)c(F)c1` [Example 83, 4-(((6-(1-(6-(1H-Tetrazol-5-yl)nicotinoyl)piperidin-4-yl)pyridin-2-yl)oxy)methyl)-3-fluorobenzonitrile] was run?
Answer: Its pEC50 is greater than 7.30.

Question: How did the pEC50 turn out when `C[C@H]1C[C@@H](Oc2ccnc(COc3ccc(Cl)cc3C#N)n2)CCN1Cc1nc2ccc(C(=O)O)cc2n1C[C@@H]1CCO1` [Compound 489, 2-{[(2S,4S)-4-({2-[(4-chloro-2-cyanophenoxy)methyl]pyrimidin-4-yl}oxy)-2-methylpiperidin-1-yl]methyl}-1-{[(2S)-oxetan-2-yl]methyl}-1H-1,3-benzodiazole-6-carboxylic acid] was run?
Answer: The pEC50 was greater than 7.30.

Question: How did the pEC50 turn out when `O=C(O)c1ccc2nc(CN3CCC(Oc4ccnc(COc5ncc(Cl)cc5F)c4)CC3)n(C[C@@H]3CCO3)c2c1` [Compound 308] was run?
Answer: The pEC50 was greater than 7.30.

Question: How did the pEC50 turn out when `CN(c1cccc(C(=O)N2CCN(Cc3nc4ccc(C(=O)O)cc4n3C[C@@H]3CCO3)CC2)c1)c1ccc(C2CC2)cc1Cl` [Compound 122, 2-[(4-{3-[(2-chloro-4-cyclopropylphenyl)(methyl)amino]benzoyl}piperazin-1-yl)methyl]-1-{[(2S)-oxetan-2-yl]methyl}-1H-1,3-benzodiazole-6-carboxylic acid] was run?
Answer: Its pEC50 is greater than 7.30.

Question: With `O=C(O)c1ccc2nc(CN3CCC(Oc4cccc(COc5ccc(Cl)cc5Cl)c4)CC3)n(C[C@@H]3CCO3)c2c1` [Compound 174, 2-[(4-{3-[(2,4-dichlorophenoxy)methyl]phenoxy}piperidin-1-yl)methyl]-1-{[(2S)-oxetan-2-yl]methyl}-1H-1,3-benzodiazole-6-carboxylic acid] as the molecule, how does the pEC50 read?
Answer: The pEC50 was greater than 7.30.

Question: `O=C(O)c1ccc2nc(CN3CCN(C(=O)c4cccc(Oc5cc(Cl)ccc5F)c4)CC3)n(C[C@@H]3CCO3)c2c1` [Compound 12, 2-({4-[3-(5-chloro-2-fluorophenoxy)benzoyl]piperazin-1-yl}methyl)-1-{[(2S)-oxetan-2-yl]methyl}-1H-1,3-benzodiazole-6-carboxylic acid] was tested. Which pEC50 did it give?
Answer: Its pEC50 is less than 6.30.

Question: How did the pEC50 turn out when `N#Cc1ccc(OCc2ccc(F)c(OC3CCN(Cc4nc5ccc(C(=O)O)cc5n4C[C@@H]4CCO4)CC3)n2)c(F)c1` [Example 330, (S)-2-((4-((6-((4-Cyano-2-fluorophenoxy)methyl)-3-fluoropyridin-2-yl)oxy)piperidin-1-yl)methyl)-1-(oxetan-2-ylmethyl)-1H-benzo[d]imidazole-6-carboxylic acid] was run?
Answer: The pEC50 was greater than 7.30.

Question: `CCn1cncc1Cn1c(CN2CCN(C(=O)c3cccc(Nc4ccc(C)cc4Cl)c3)CC2)nc2ccc(C(=O)O)cc21` [Compound 58, 2-[(4-{3-[(2-chloro-4-methylphenyl)amino]benzoyl}piperazin-1-yl)methyl]-1-[(1-ethyl-1H-imidazol-5-yl)methyl]-1H-1,3-benzodiazole-6-carboxylic acid] was tested. Which pEC50 did it give?
Answer: Its pEC50 is less than 6.30.

Question: With `C[C@H]1C[C@@H](Oc2cccc(COc3ccc(C#N)cc3F)c2)CCN1Cc1nc2c(F)cc(C(=O)O)cc2n1C[C@@H]1CCO1` [Compound 320] as the molecule, how does the pEC50 read?
Answer: Its pEC50 is greater than 7.30.

Question: `O=C(O)c1ccc2nc(CN3CCN(C(=O)c4cccc(Cc5ccc(Cl)cc5Cl)c4)CC3)n(C[C@@H]3CCO3)c2c1` [Compound 48, 2-[(4-{3-[(2,4-dichlorophenyl)methyl]benzoyl}piperazin-1-yl)methyl]-1-{[(2S)-oxetan-2-yl]methyl}-1H-1,3-benzodiazole-6-carboxylic acid] was tested. Which pEC50 did it give?
Answer: The pEC50 was 6.30 to 7.30.

Question: How did the pEC50 turn out when `N#Cc1ccc(COc2cccc(C3CCN(C(=O)c4ccc(C(=O)O)nc4)CC3)n2)c(F)c1` [Example 91, 5-(4-(6-((4-Cyano-2-fluorobenzyl)oxy)pyridin-2-yl)piperidine-1-carbonyl)picolinic acid] was run?
Answer: The pEC50 was less than 6.30.

Question: With `CCn1cncc1Cn1c(CN2CCC([C@@H](OC)c3cccc(COc4ccc(Cl)cc4Cl)c3)CC2)nc2ccc(C(=O)O)cc21` (single isomer, unassigned) [Example 204] as the molecule, how does the pEC50 read?
Answer: The pEC50 was 6.30 to 7.30.

Question: `CCn1cncc1Cn1c(CN2CCN(C(=O)c3cccc(CN(C)c4ccc(C)cc4Cl)c3)CC2)nc2ccc(C(=O)O)cc21` [Compound 77, 2-{[4-(3-{[(2-chloro-4-methylphenyl)(methyl)amino]methyl}benzoyl)piperazin-1-yl]methyl}-1-[(1-ethyl-1H-imidazol-5-yl)methyl]-1H-1,3-benzodiazole-6-carboxylic acid] was tested. Which pEC50 did it give?
Answer: Its pEC50 is less than 6.30.

Question: `C[C@H]1C[C@@H](Oc2ccnc(COc3ccc(C#N)cc3Cl)c2)CCN1Cc1nc2ccc(C(=O)O)cc2n1C[C@@H]1CCO1` [Compound 366] was tested. Which pEC50 did it give?
Answer: The pEC50 was greater than 7.30.

Question: `COC(=O)c1ccc2nc(CN3CCN(C(=O)c4ccc(COc5cccc(Cl)c5C)o4)CC3)n(C[C@@H]3CCO3)c2c1` [Compound 24, methyl 2-[(4-{5-[(3-chloro-2-methylphenoxy)methyl]furan-2-carbonyl}piperazin-1-yl)methyl]-1-{[(2S)-oxetan-2-yl]methyl}-1H-1,3-benzodiazole-6-carboxylate] was tested. Which pEC50 did it give?
Answer: The pEC50 was less than 6.30.
